PubChem BioAssay AID1241 (SRMLSC, 2008)

assay: NF-kB promoter reporter activators, neuronal cells, dose response, cell-based, SH-SY5Y, luciferase (AID 1241); conditions: fold induction

Point of comparison: Cc1ccc(Nc2nc(-c3ccc(O)cc3O)cs2)nc1, EC50 1890 nM. Against it:
- CCOC(=O)/C(=C\c1ccccc1)C(=O)c1cc(C(C)=O)c(Nc2ccccc2)s1 — 9.2-fold higher, 17400 nM
- COc1ccc(-c2cn3ccsc3n2)cc1 — 6.6-fold higher, 12500 nM
- Cc1ccc(-n2c(C)cc(C(=O)CSc3nnnn3C)c2C)cc1 — within 1.5-fold, 1320 nM
- CC(=O)N(/N=C1\Sc2ccccc2C1=O)c1cccc(C)c1 — 12-fold higher, 22300 nM
- Cc1ccc(C2=NN(S(C)(=O)=O)C(c3ccc4c(c3)OCO4)C2)cc1 (stereo not given) — within 1.5-fold, 2650 nM
- O=C(Nc1nc(-c2nc3ccccc3s2)cs1)C1CC1 — 8.3-fold higher, 15600 nM
- O=C(CC(Nc1ccc(F)cc1)C(=O)O)c1ccccc1 (stereo not given) — within 1.5-fold, 1500 nM
- CCNc1nc(N)nc(-c2cc(Cl)ccc2O)n1 — 2.2-fold lower, 847 nM
- Cc1ccc(-c2cc(-c3cccc(F)c3)n[nH]2)c(O)c1 — 2.3-fold higher, 4400 nM
- COc1ccc(-c2cc(-c3ccccc3O)[nH]n2)cc1 — 2-fold lower, 968 nM
- Clc1ccc(-c2nnc(-c3ccccc3Cl)o2)cc1 — within 1.5-fold, 2360 nM
- N#C/C(=N\Nc1ccc(Cl)cc1)C(=N)N1CCCCC1 — within 1.5-fold, 1720 nM
- O=C(COc1ccccc1Cl)Nc1ccc(Cl)cn1 — 8.1-fold higher, 15400 nM
- COc1ccc(-n2nc3cc(C)c(N)c(Br)c3n2)cc1 — within 1.5-fold, 1440 nM
- c1ccc(-c2noc(-c3cccc4ccccc34)n2)cc1 — 8.3-fold higher, 15600 nM
- COc1ccc2nc(SCC(C)=O)c(C#N)cc2c1 — within 1.5-fold, 1900 nM
- COc1ccc2nc3oc(C(=O)N4CCCCC4)cc3cc2c1 — 2.8-fold higher, 5270 nM
- O=C(/C=C/c1ccccc1[N+](=O)[O-])Nc1ccccc1 — 5.5-fold higher, 10400 nM
- COc1cccc(CNc2cnc3ccccc3c2)c1O — 7.4-fold higher, 13900 nM
- COc1ccccc1/C=C/C(=O)Nc1ccc2c(c1)CCC2 — 3-fold higher, 5640 nM
- O=C(Nc1nc2ccc(F)cc2s1)c1cccs1 — 2.4-fold higher, 4570 nM
- O=C(NCCSc1ccccc1)c1ccc(Br)cc1 — within 1.5-fold, 1340 nM
- O=C(NC(=S)Nc1ccc2c(c1)OCCO2)c1ccccc1F — within 1.5-fold, 1740 nM
- O=C(Nc1ccc2c(c1)OCCO2)Nc1ccc2c(c1)OCO2 — 17-fold lower, 114 nM
- C(=N\Nc1nc2ccccc2s1)/c1ccco1 — within 1.5-fold, 2320 nM
- Cc1nc(Nc2ccccc2)sc1-c1ccccc1 — within 1.5-fold, 1450 nM
- O=C(/C=C/Nc1ccccc1)c1ccccc1 — lower, < 59 nM
- COc1ccc(NC(=O)N2CCc3ccccc32)cc1 — 2.7-fold lower, 697 nM
- COc1ccc(-c2nnc(SCc3ccccc3F)o2)cc1 — 2.1-fold higher, 3890 nM
- Brc1ccccc1-c1nc(-c2ccccc2)no1 — within 1.5-fold, 2080 nM
- NC(=O)c1ccsc1NC(=O)c1ccc2c(c1)CCCC2 — 4.2-fold lower, 455 nM
- c1ccc2oc(-c3csc(NCC4CCCO4)n3)cc2c1 (stereo not given) — within 1.5-fold, 2540 nM
- COc1ccc2c(c1)OC/C(=C/c1cccs1)C2=O — 2.9-fold higher, 5520 nM
- Cc1nc(Sc2nnnn2C)c2c3c(sc2n1)CCC3 — within 1.5-fold, 1590 nM
- Oc1cccc(/C=N/Nc2cccc3cccnc23)c1 — within 1.5-fold, 1350 nM
- CCCCc1ccc(-c2nc(-c3ccncc3)no2)cc1 — 2.2-fold higher, 4140 nM
- CC(=Nc1ccc(O)cc1)c1sc2ccccc2c1O — within 1.5-fold, 2160 nM
- CC(=O)c1ccc(Nc2ccc(-c3ccccc3F)nn2)cc1 — 2.3-fold lower, 838 nM
- CCCCc1ccc(NC(=O)c2cnccn2)cc1 — 7.6-fold lower, 250 nM
- CCOC(=O)CSc1nc(-c2ccncc2)ccc1C#N — 3.6-fold higher, 6770 nM
- Cc1csc(SCc2nnc(-c3ccccc3Br)o2)n1 — 2.5-fold higher, 4680 nM
- CN(C)c1ccc(C(=O)/C=C/c2ccco2)cc1 — within 1.5-fold, 1960 nM
- COc1ccc(/C=N/Nc2cc(OC)ncn2)cc1 — 5.5-fold lower, 341 nM
- Cc1ccc(/C=N/Nc2nc3ccccc3s2)o1 — 2.4-fold lower, 790 nM
- CN(c1ccc(O)cc1)c1nc(-c2cccs2)cs1 — 2-fold higher, 3860 nM
- CN(C)c1ccc(NC(=O)Nc2cccc(Cl)c2)cc1 — 1.8-fold higher, 3420 nM
- CCOC(=O)C1CCN(Cc2ccc(O)c3ncccc23)CC1 — within 1.5-fold, 2510 nM
- CCOc1cccc2cc(-c3csc(NC(=O)CCC(=O)NCCN4CCCCC4C)n3)c(=O)oc12 (stereo not given) — within 1.5-fold, 2760 nM
- COc1ccc(N/C=C\C(=O)c2ccc3c(c2)OCO3)cc1 — within 1.5-fold, 1630 nM
- Cc1ccc(C(=O)Nc2ccc3c(c2)CCC3)cc1 — 12-fold lower, 158 nM
- Cc1ccc(Nc2nc3ccccc3s2)c(C)c1 — 2.2-fold lower, 874 nM
- COc1ccccc1/C=C/C(=O)Nc1ccc2c(c1)OCCO2 — 1.6-fold lower, 1190 nM
- Cc1nn2cc(-c3ccccc3)nc2s1 — within 1.5-fold, 2030 nM
- COc1ccc(N=C(C)C2=C(O)c3ccccc3C2=O)cc1 — 2.1-fold lower, 889 nM
- Cc1ccc(Nc2nc(-c3ccc(O)c(O)c3)cs2)nc1 — 3.6-fold higher, 6730 nM
- CCOC(=O)C1=C(C)n2c(s/c(=C/c3cccc([N+](=O)[O-])c3)c2=O)=NC1c1ccc(O)c(OC)c1 (stereo not given) — within 1.5-fold, 2100 nM
- Cc1ccsc1C(=O)Nc1ccc2c(c1)OCCO2 — 1.6-fold higher, 3080 nM
- Cc1ccc2nc(-c3ccc(NC(=O)COC(=O)c4ccc([N+](=O)[O-])o4)cc3)sc2c1 — 4.3-fold lower, 437 nM
- COCCNc1nc(-c2cc3ccccc3o2)cs1 — within 1.5-fold, 1400 nM
- COc1cccc(/C=C/C(=O)c2ccc[nH]2)c1 — 7.9-fold higher, 14900 nM
- CCOC(=O)c1sc(NC(=O)c2sccc2C)cc1C — 2-fold lower, 952 nM
- O=C(Nc1ccc2c(c1)OCCO2)c1ccc(Br)s1 — 3.1-fold lower, 609 nM
- Fc1ccc(Nc2ccc3ccccc3n2)c(F)c1 — 2.7-fold lower, 698 nM
- COc1ccc(-c2nnc(-c3ccc(N)cc3)o2)cc1 — within 1.5-fold, 2120 nM
- O=C(/C=C\Nc1ccc2c(c1)OCO2)c1ccc2c(c1)OCO2 — 1.9-fold lower, 996 nM
- Cc1ccc(/C=C2\OC(=O)c3ccccc32)cc1 — 3.2-fold higher, 6030 nM
- Nc1c(C(=O)Nc2ccc(Cl)cc2)oc2ccccc12 — 5.8-fold higher, 11000 nM
- N#C/C(=N\Nc1cccc(F)c1)C(=N)N1CCCCCC1 — within 1.5-fold, 1640 nM
- CC(=O)c1cccc(N/C=C\C(=O)c2ccc(C)cc2)c1 — 2.1-fold lower, 904 nM
- COc1cccc(C(=O)/C=C/Nc2cccc(O)c2)c1 — within 1.5-fold, 1290 nM
- O=C(/C=C/c1c[nH]c2ccccc12)c1ccccc1 — 2.9-fold higher, 5440 nM
- O=C(NCCCn1ccnc1)c1cc(-c2cccs2)on1 — 13-fold higher, 24100 nM
- COc1cccc(/C=C/C(=O)Nc2ccc3c(c2)OCCO3)c1 — 2.1-fold higher, 3940 nM
- CCCOc1ccc(C(=O)NCCc2ccccc2)cc1 — 2.9-fold lower, 648 nM
- c1ccc(CCNc2ncnc3c2cnn3-c2ccccc2)cc1 — 14-fold higher, 27400 nM
- CSc1ccccc1-c1nnc(-c2ccccc2)o1 — 2-fold higher, 3700 nM
- Cc1ccnc(NC(=O)Nc2cccc(F)c2)c1 — 3.1-fold lower, 608 nM
- Cc1ccccc1Nc1nnc(SCC2CCCCO2)s1 (stereo not given) — 3-fold higher, 5760 nM
- CCCCOC(=O)Nc1ccc(N2CCCCC2)cc1 — 11-fold higher, 20500 nM
- Clc1c(CSc2nc3ccccc3o2)nc2ccccn12 — within 1.5-fold, 1960 nM
- COc1cc(/C=N/N(C)c2ccccc2)ccc1O — within 1.5-fold, 2640 nM
- O=C(Nc1ccc2c(c1)OCO2)c1ccc(Cl)s1 — within 1.5-fold, 1800 nM
- O=C(CCc1ccccc1)Nc1ccc2ccccc2n1 — 8.6-fold higher, 16200 nM
- O=C(Nc1ccc(N2CCCC2)c(Cl)c1)c1ccco1 — within 1.5-fold, 1680 nM
- O=C1C(C=Nc2ccc(F)cc2)=C(O)c2ccccc21 — within 1.5-fold, 2410 nM
- Cc1ccccc1-c1noc(-c2ccc(O)cc2)n1 — 3.3-fold higher, 6210 nM
- CCc1ccc(NC(=O)c2cnn(-c3ccccc3)c2C)cc1 — within 1.5-fold, 2560 nM
- O/C(=C\c1ccc2ccccc2n1)c1ccc(O)cc1O — 2-fold lower, 954 nM
- COc1ccccc1N1CCN(Cc2ccc(O)c3ncccc23)CC1 — 1.6-fold lower, 1160 nM
- Cc1occc1C(=O)N/N=C/C(Br)=C/c1ccccc1 — within 1.5-fold, 1640 nM
- Cc1ccc(OCC(=O)Nc2ccccc2[N+](=O)[O-])c(Br)c1 — 5-fold higher, 9490 nM
- Clc1cc(Cl)c(OCc2nc(-c3ccccn3)no2)cc1Cl — within 1.5-fold, 1850 nM
- O=C(Nc1ccon1)c1cc2c(s1)CCCC2 — 2.2-fold higher, 4130 nM
- CSc1ccc(/C=N/Nc2cccc(C(=O)O)c2)cc1 — 1.8-fold higher, 3430 nM
- CCCCCCOc1ccc(OC(=O)c2cccnc2)cc1 — 10-fold lower, 189 nM
- CCOC(=O)c1cnc2c(-c3ccccc3)cnn2c1C — 4-fold higher, 7520 nM
- Cc1ccc(NC2=Nc3ccccc3CS2)cc1 — within 1.5-fold, 1340 nM
- O=C(c1ccc(Cl)cc1)c1coc2ccc(O)cc12 — 1.7-fold higher, 3200 nM
- Cc1cc2nc(-c3ccc(SCC(=O)Nc4ccc(S(=O)(=O)NC5CC5)cc4)nc3)[nH]c2cc1C — 2.1-fold lower, 907 nM
- NC(=O)c1ccccc1N/C=C/C(=O)c1ccccc1 — 1.8-fold lower, 1040 nM
- Cc1cnc(C(=O)Nc2ccc3c(c2)CCC3)cn1 — within 1.5-fold, 2450 nM
- Cc1ccc(NC(=O)N2CCC(c3ccccc3)C2)cc1C (stereo not given) — 2.8-fold higher, 5300 nM
- CC(=O)Nc1ccc2nc(-c3ccccc3)cn2c1 — within 1.5-fold, 2700 nM
- CC(C(=O)O)c1ccc(N2Cc3ccccc3C2=O)cc1 (stereo not given) — within 1.5-fold, 1520 nM
- COc1ccc2[nH]c3c(c2c1)CCn1c-3nc2ccccc2c1=O — 10-fold lower, 185 nM
- COc1ccc2c(=O)c(-c3nc(C)cs3)coc2c1 — 1.8-fold lower, 1080 nM
- Oc1ccc(N=Nc2n[nH]c(-c3ccccc3)n2)cc1 — 2.1-fold higher, 3990 nM
- CCOC(=O)c1c(N)sc(C(=O)Nc2ccc3c(c2)OCO3)c1C — 2.2-fold lower, 871 nM
- Cc1ccc(C(=O)Nc2nc3c(s2)CCCC3)o1 — within 1.5-fold, 1780 nM
- Nc1ccc(-c2nc3ccc([N+](=O)[O-])cc3[nH]2)cc1 — within 1.5-fold, 1650 nM
- COc1cc(/C=N/O)ccc1OCc1ccc(Cl)cc1 — 2.1-fold lower, 882 nM
- Cc1ccc(NC(=O)c2cc3ccccc3o2)cc1S(=O)(=O)N(C)C — within 1.5-fold, 2040 nM
- COc1ccc2c(c1)CC/C(=C/c1ccco1)C2=O — within 1.5-fold, 1730 nM
- O=C(/C=C\Nc1ccc(Br)cc1)c1cccnc1 — 1.6-fold lower, 1150 nM
- CCCCc1ccc(-c2ccc(Br)cc2O)nc1 — 1.8-fold higher, 3360 nM
- Cc1ccc(NC(=O)c2scc3c2CCCC3)cc1 — 2.6-fold lower, 714 nM
- CCC(=O)Nc1nc(-c2ccc3c(c2)OCCO3)cs1 — 2.4-fold higher, 4540 nM
- N#CC1(c2ccc(NC(=O)c3ccccc3F)cc2)CCCC1 — 1.8-fold lower, 1080 nM
- COc1ccc(NC(=O)c2cc3ccccn3n2)cc1 — 2-fold lower, 958 nM
- CCc1ccc(-c2cc(N)n(-c3ccccc3)n2)cc1 — 8.7-fold higher, 16400 nM
- CCOC(=O)CSc1nc2cc(C)ccc2cc1C#N — 1.7-fold lower, 1100 nM
- CC(C)CC(=O)Nc1ccc(-c2cn3ccsc3n2)cc1 — 4.5-fold higher, 8510 nM
- c1ccc(-c2ncc(-c3ccn[nH]3)s2)cc1 — within 1.5-fold, 2320 nM
- Cc1ccc(-c2nnc(SCc3ccccc3F)o2)cc1 — 2.4-fold higher, 4630 nM
- COc1ccc(/C=N/N=C(\N)c2nonc2N)cc1 — 6.9-fold lower, 272 nM
- COc1ccc(C(=O)Nc2ccc3c(c2)OCCO3)cc1 — within 1.5-fold, 1350 nM
- CN(C)c1ccc(C(=O)c2ccc(N(C)C)c3ccccc23)cc1 — 8.6-fold lower, 221 nM
- CSCCNC(=O)c1ccc(C(C)(C)C)cc1 — 2.8-fold higher, 5250 nM
- C/C(=N\N1C(=O)c2ccccc2NC1c1ccco1)c1ccccc1O (stereo not given) — within 1.5-fold, 2500 nM
- CC(=O)c1ccc(NC(=O)/C(Cl)=C/c2ccccc2)cc1 — 2.3-fold higher, 4310 nM
- Cc1ccc(C(=O)c2cc([N+](=O)[O-])ccc2N2CCOCC2)c(C)c1 — 1.6-fold higher, 3030 nM
- O=C(C=C1SCCS1)/C=C/c1ccco1 — 2.4-fold lower, 781 nM
- O=C(Nc1cnc2ccccc2c1)c1ccco1 — within 1.5-fold, 1380 nM
- O=C(Nc1ccc(N2CCOCC2)c(Cl)c1)c1cccc(F)c1 — 4.6-fold higher, 8600 nM
